Experimental data as given in US20030134783A1, “Use of cyclic heptapeptides for the inhibition of biofilm formation” (priority 2001, published 2003).
Numbered stars: 1 amine (or outer) side, 2 acyl side, 3 side chain; on linkers, the order of the positions; unused ones are H or OH. Bridge positions count the residues as written; N and C are the ends. Square brackets hold non-standard residues; d marks the D form. Peptide text beside a SMILES is read from it. X1 = CC(C)CCCCCCCCC[C@H](CC(=O)[*:1])O[*:2]

Columns and labels:
[1] = tested on: S. enterica pre-formed biofilm; assay: Dispersal of pre-formed biofilm in PVC wells; type: cell-based, Salmonella enterica; conditions: for effect on pre-formed biofilms: detergent-like compounds mixed into cultures in PVC wells
Description: (§1) Studies were done to test biofilm formation in microtitre wells. To quantify biofilm formation, typically, 10 μl of an overnight culture were used to inoculate PVC microtitre wells containing 90 μl of LB without NaCl, but with 2% glucose. The covered microtitre dish was sealed with parafilm during incubation at 30° C. Cultures were removed to determine the OD630, and the wells were rinsed with distilled water. After drying at room temperature for 15 minutes, 200 μl of crystal violet (1%) was added to the wells for 20 minutes The stained biofilms were rinsed several times with distilled water, allowed to dry at room temperature for 15 minutes, and extracted with 2×200 μl 95% ethanol. The OD550 was estimated using a Beckman DU-640B spectrophotometer, after adjusting the volume to 1 mL with distilled water.
Surfactin was added to PVC wells after the culture had reached an OD630 of approximately 0.15-0.2. When this OD was reached, the surfactants were gently mixed into the cultures in microtitre wells. Samples were harvested and either growth as determined by OD630 or biofilm levels as measured by OD550 of CV-stained material were analyzed. The OD550 of the surfactin-treated sample decreased at a faster rate than that of the untreated sample for the initial sloughing phase of BF, resulting in an approximately 85% decrease in total biofilm by the end of the experiment at 22 hours.
The detergents tested were SDS (ionic surfactant), Tween-80 ([…] surfactant), rhamnolipid (another lipopeptide surfactant) and serrawettin. Surfactin concentration in this and the rest of the studies was maintained at 100 μg in order to compare its activity to that of the biosurfactant rhamnolipid, which affected BF when it was used at higher concentrations.

wild-type S. enterica = assay: Biofilm formation in PVC microtitre wells, crystal violet staining; type: cell-based, Salmonella enterica
Description: The ability of lipopolysaccharide (LPS) mutants to form biofilms was tested in PVC microtitre plates. The biofilm assay used monitors the ability of S. enterica to attach to the wells of the microtitre dishes. The biofilm formed at the interface between the air and liquid medium, and was quantitated by staining with crystal violet (CV) as described in the examples given below.
as §1
The swarming defect of the LPS mutants could be rescued by the addition of the surfactin isolated from Bacillus subtilis. […]

Salmonella typhimurium = assay: Biofilm formation in catheters, crystal violet staining; type: cell-based; design: key to Biofilm Formation: “++++” = efficient biofilm formation; “−” = no biofilm formation; conditions: for inhibition of BF by S. enterica relative to surfactin: catheters, Tween 80 at 0.25%, 10 to 100 million bacterial cells
Description: (§2) To visualize biofilm formation in catheters, 10 μl of an overnight culture of S. enterica was inoculated into 500 μl of medium and injected into clear vinyl urethral catheters overnight at 30° C., with and without 100 μg surfactin. Biofilms were analyzed by staining with CV. The catheters were capped at both ends and incubated at 30° C. overnight. Media and growth conditions were as described above for PVC wells. Cultures were removed to determine the OD630, and the catheters were rinsed with distilled water. After drying at room temperature for 15 minutes, 700 μl of crystal violet (1%) was added to the catheters for 20 minutes. The stained biofilms were rinsed several times with distilled water, and allowed to dry at room temperature for 15 minutes before examination.
S. enterica was grown in clear vinyl urethral catheters. The biofilm formed by S. enterica was dispersed all along the growth surface. […] It is important to note that the same results were obtained when venous catheters made of polyurethane were tested. The data presented here relate mainly to the urethral catheters.
When the device coated is to be inserted in the body cavity, some form of surface sterilization may be necessary. Also, endogenous fluids should not wash off the surfactin coating. Studies were conducted to determine these properties of the coating (Table 1). Urethral catheters were coated with surfactin (by passing through 500 μl of a solution of 1.0 μg/μl surfactin), and 10 mL of sterile saline solution were passed through the coated catheter.
After coating urethral cathethers with surfactin, the coated catheters were subjected to treatment in an autoclave (121° C., 15 psi) for 30 minutes or baking in a 50° C. oven for 6 hours. […] Surfactin, apparently adhered to the catheters, largely inhibiting biofilm formation.
The biofilm-inhibiting properties of surfactin are not altered after storing surfactin-baked catheters (baked for one hour at 60° C.) for 5 days at room temperature (Table 2). Further, baked on surfactin is not washed off by sterile saline dripping through the catheter at 0.3 mL/minutes for 24 hours. The BF-inhibiting properties of surfactin are stable over 50 days of storage at either room temperature or at 4° C. Thus, medical devices coated with surfactin, or a substance with surfactin-like properties, may be partially sterilized by baking at 60° C., and the sterility would be maintained over a long period of time.

[2] = tested on: LPS mutants of S. enterica; assay: Rescue of swarming defect of LPS mutants; type: cell-based, Salmonella enterica; conditions: addition of surfactin isolated from Bacillus subtilis
Proteus mirabilis = assay: Biofilm formation in urethral catheters, crystal violet staining; type: cell-based
Description: as §2
(§3) The most common causes of central urinary catheter and central venous catheter infections (caused by adherent bacteria), include Eschericila coli, Proteus mirabilis, and Pseudomonas aeruginosa, Klebseiella pneumoniae, Staphylococcus epidermis. The effect of surfactin on BF by some of these medically relevant organisms was tested by growth of the organism in urethral catheters (Table 3). Escherichia coli and Proteus mirabilis formed a biofilm mainly at the air liquid interface, while the biofilm formed by P. aeruginosa, like that formed by S. enterica, was dispersed all along the catheter.

Staphylococcus epidermis = assay: as above; type: cell-based; conditions: Surfactin-coated catheters
Description: as §2, §3

Escherichia coli = assay: as above; type: cell-based
Description: as §2, §3

## CCCCCCCCCCCCOS(=O)(=O)[O-].[Na+] [SDS]
[1]
  effect on pre-formed biofilms: dispersed pre-formed biofilm

## CC(C)CCCCCCCCC[C@@H]1CC(=O)N[C@@H](CCC(=O)O)C(=O)N[C@@H](CC(C)C)C(=O)N[C@H](CC(C)C)C(=O)N[C@@H](C(C)C)C(=O)N[C@@H](CC(=O)O)C(=O)N[C@H](CC(C)C)C(=O)N[C@@H](CC(C)C)C(=O)O1 [Surfactin, surfactin] (EL[dL]VD[dL]L; linker N-C via X1)
[1]; surfactin 100 μg added at OD630 0.15-0.2, end of experiment at 22 hours
  decrease in total biofilm (pre-formed): approximately 85%
wild-type S. enterica; PVC wells pre-coated or surfactin in growth medium, overnight at 30° C.
  amount of surfactin sufficient to completely abolish BF: < 5 µg
wild-type S. enterica; all surfactin concentrations tested
  Bacterial growth: unaffected
Salmonella typhimurium; 50 days of storage at room temperature or at 4° C.
  stability of BF-inhibiting properties on storage: stable
Salmonella typhimurium; Surfactin-coated catheters
  Biofilm formation, optical density reading based on crystal violet staining: 0.05
Salmonella typhimurium; catheter treatment: Surfactin, saline wash (10 mL sterile saline)
  Biofilm Formation: ++++
Salmonella typhimurium; catheter treatment: Surfactin, the oven (50° C., 6 hours)
  Biofilm Formation: −
Salmonella typhimurium; clear vinyl urethral catheters, 100 μg surfactin, overnight at 30° C.
  formation of biofilm on the catheters: eliminated the formation of biofilm
Salmonella typhimurium; coated catheters baked in 50° C. oven for 6 hours
  effect of oven treatment on biofilm inhibition by surfactin: no effect
Salmonella typhimurium; oven treatment of surfactin coated catheters
  resistance of baked surfactin coating to saline washing: resistant to saline washing
Salmonella typhimurium; surfactin solution run through catheters prior to inoculation
  effectiveness of pre-coating catheters versus surfactin in the growth medium: just as effective
Salmonella typhimurium; surfactin-baked catheters (one hour at 60° C.), 5 days at room T.
  Biofilm formation, optical density reading based on crystal violet staining: 0.05
Salmonella typhimurium; surfactin-baked catheters, 24 hour saline wash (0.3 mL/minutes)
  Biofilm formation, optical density reading based on crystal violet staining: 0.06
Salmonella typhimurium; urethral catheter treatment: Surfactin
  Biofilm Formation: −
[2]
  swarming defect of the LPS mutants: rescued
Proteus mirabilis; Surfactin-coated catheters
  Biofilm formation, optical density reading based on crystal violet staining: 0.11
Proteus mirabilis; growth in urethral catheters
  inhibition of BF and growth: inhibited BF (but not growth)
Staphylococcus epidermis
  Biofilm formation, optical density reading based on crystal violet staining: 0.40
Escherichia coli; Surfactin-coated catheters
  Biofilm formation, optical density reading based on crystal violet staining: 0.05
Escherichia coli; growth in urethral catheters
  inhibition of BF and growth: inhibited BF (but not growth)

## CCCCCCCC/C=C\CCCCCCCC(=O)OCCOCC(OCCO)C1OCC(OCCO)C1OCCO (centres unmarked) [Tween-80, reference compound]
[1]
  effect on pre-formed biofilms: dispersed pre-formed biofilm
Salmonella typhimurium
  inhibition of BF by S. enterica relative to surfactin: as effective as surfactin

## rhamnolipid [reference compound]
[1]
  effect on pre-formed biofilms: dispersed pre-formed biofilm
Salmonella typhimurium
  inhibition of BF by S. enterica relative to surfactin: only half as effective

## serrawettin
[1]
  effect on pre-formed biofilms: dispersed pre-formed biofilm
